In series [1] the test system is HeLa. As to the kind of experiment: Induction of ROS production in human HeLa cells preincubated for 2 hrs followed by H2DCFDA probe exposure for 30 mins and subsequent removal of probe with photo-irradiation at 16 J/cm2 by confocal scanning microscopic analysis. It is filed as functional, cell-based. The settings on record: dose <= 200.0 nM, time 2.5 hrs.
The subject of series [2] is HeLa. The experiment in a line: Induction of apoptosis in human HeLa cells assessed as necrotic cells at 25 nM incubated for 3 hrs with photo-irradiation at 54 J/cm2 by Annexin V-FITC/PI staining based flow cytometry relative to control. Type of series: functional. For orientation: In flow cytometry, cells or beads pass a laser one at a time.
Series [3] is described as follows: Drug distribution in liver of Balb/C nu/nu mouse xenografted with human HeLa cells at 2.5 umol/kg, iv measured for 24 hr by IVIS imaging analysis. It is filed as ADME, organism-based. The settings on record: in vivo, dose 2.5 µmol/kg. A general note: A xenograft is tissue or cells of one species grown in another, often human tumour cells in immunodeficient mice.

Regarding `COc1ccc2c(c1)CCc1c(-c3ccccc3)c3n(c1-2)[B-](F)(F)[N+]1=C(c2ccc(OCC(=O)NCCCN4CCOCC4)cc2)C(I)=C(c2ccccc2)C1=N3`, the Activity result in series [1] was “Dose-Dependent Effect”; in series [2], 3.67%. In series [3], the Drug uptake entry was “Not Active”.
